# Results taken from US20170128059A1, “METHODS AND APPARATUS FOR PREVENTION OF SURGICAL SITE INFECTIONS” (priority 2015, published 2017).
# Legend:
# E. coli [1] = assay: acute abdominal surgical model with E. coli contamination, quantitative wound tissue culture; format: in vivo, pigs; conditions: E-F group
# Protocol: In the gentamicin group, the degree of systemic absorption of the antibiotic was quantified.
# Seven female adult pigs weighing 50-70 kg were placed under general anesthesia and monitored for the duration of the experimental protocol. The abdomen was shaved, sterilely prepped with chlorhexidine solution, and draped under sterile conditions. A 12-cm periumbilical midline incision was made and the abdominal cavity was entered. After approximately 2.5 hours of wound retraction to simulate a prototypical length of time for colonic dissection, a gentamicin-sensitive E. coli suspension at a standardized concentration of 10^9 colony-forming units (CFU) in 10 mL normal saline was dripped onto the central colon. E. coli is classified as an enteric bacteria species. […]
# FIGS. 28A-28B show the locations at which two swab samples were taken just prior to device removal (e.g. at Time 1). […] Colonies were identified as E. coli, enumerated, and recorded, and the results for serial dilutions were internally validated. […] Tissue culture results were expressed as colony-forming units (CFU) per gram. […]
# Quantitative culture results were expressed in mean±standard deviation (SD). Statistical comparisons of quantitative culture results were performed using the Student's t-test. Significance was determined based on a value of p<0.05.
# E. coli [2] = conditions: cited from earlier work
# [3] = intravenous administration, 240 mg; cited from earlier work
# [4] = finite-element (COMSOL) simulation of local gentamicin delivery to a retracted surgical wound; conditions: calculated model parameter, adipose wound tissue
# Text: In order to better understand the differences between systemic delivery and local delivery of therapeutic agents, a finite-element analysis software package (COMSOL) was used to generate a three dimensional (3D) model of a retracted surgical wound with a 12 cm incision. […] The 3D model shown in FIG. 23 was modeled in a Computer Aided Design (CAD) package (Solidworks) based on the geometry of the device and the retracted wound tissue in a cadaver.
# Gentamicin, a member of the aminoglycoside family, was used as the antibiotic in the model due to its prevalence in clinical use to combat the enteric, gram-negative bacteria that cause wound infections. A concentration of 240 mg/L was delivered during the simulated 4 hr surgery based on standard clinical protocols.
# where Φ, D, and C are the particle flux, diffusion coefficient, and concentration, respectively. […]
# The diffusion coefficients of various solutes and solvents have been experimentally obtained and published. However, for solute-solvent combinations that have not been published or experimentally determined, the molecular weight of a given solute may be correlated to the diffusion coefficient in the same solvent using a logarithmic relation. […]
# The simulation was run for four hours to mimic a standard colorectal procedure and the antibiotic flux and tissue concentration was recorded at each time step.
# [5] = test system: gram-negative bacteria present in colorectal surgeries; conditions: required to neutralize gram-negative bacteria present in colorectal surgeries; cited from earlier work
# E. coli [6] = assay: minimum inhibitory concentration of gentamicin, E. coli; format: cell-based
# Text: The extent of absorption of a fluid or solute into the tissue may be a function of the rate of fluid delivery, concentration of solutes (if any) in the delivered fluid, physical characteristics of the solutes (if any), the porosity of the tissue, tortuousity of the tissue, systemic absorption via the capillary bed and subsequent renal clearance, and/or the time period over which the surgical device and delivered fluid are in contact with the wound tissues. […] The minimum inhibitory concentration (16 mg/L) was reached are the wound surface in about 3 minutes of fluid delivery. […] The surgical device may thus be able to reduce microbial growth in wounds even after being removed, which may result in a lower risk of developing a surgical site infection.
# The surgical device may be used to deliver a therapeutic fluid to a wound tissue to maintain a constant therapeutic concentration in the tissue. The therapeutic concentration in the tissue may be maintained for a portion of or the entire duration of the surgical procedure. The concentration of the therapeutic agent (e.g. antibiotic) may be maintained within a pre-determined range. The pre-determined concentration may depend on the type of therapeutic used as described herein. […] The therapeutic concentration may be at or above the minimum inhibitory concentration. […]
# [7] = serum and wound tissue gentamicin concentration by ELISA after local delivery through the surgical device; conditions: E-F group
# Protocol: The 7 pigs were divided into two groups each: 1. Control (n=1) where no device was used and a sham procedure was performed. 2. “Experimental-No Fluid” (E-NF) group (n=3) where the surgical device was used without any irrigation delivered through the device in order to mimic conditions with other non-irrigating surgical retractors. 3. […] The irrigation fluid was delivered via gravity drainage from an IV bag hung on a pole at a height of 6 feet, and removal of fluid from the device was achieved via wall suction into a standard surgical canister. Both the fluid delivery and fluid removal mechanisms were integrated into the surgical device via separate tubing connections. The total time of irrigation averaged approximately 4 hours.
# Experimental data was collected at two time points. Time 1 was after 4 hours of simulated surgery and/or irrigation and at the time of device removal. Time 2 was 4 hours after wound closure (e.g. at the time of wound reopening).
# In the E-F group, peripheral blood samples were drawn by the anesthetists at Times 1 and 2. The blood was collected in serum-separator tubes and centrifuged. […] Two 4 mm×8 mm punch biopsies at each time point were taken, homogenized, and diluted in 1 mL phosphate buffered saline (PBS). The sample was centrifuged, and the supernatant was isolated for ELISA analysis.
substance,measurement,setting,value
gentamicin,quantitative wound culture (E. coli) in tissue sample,"E. coli [1]; 240 mg gentamicin sulfate in 1 L saline through device, Time 1 (device removal)",1.25±1.55×10^2 CFU/gm
same,quantitative wound culture (E. coli) in tissue sample,E. coli [1]; Time 2 (4 hours after wound closure),2.08±3.01×10^2 CFU/gm
same,minimum inhibitory concentration,E. coli [2],16 µg/mL
same,peak tissue concentration relative to minimum inhibitory concentration,[3],4.5 times
same,time of peak tissue concentration after administration,[3],roughly 20 minutes
same,Effective Diffusion Coefficient,[4],1.88E−6 cm^2/s
same,minimum inhibitory concentration (MIC),[5],0.003 mol/m^3
same,delivered fluid concentration (240 mg/L) relative to typical minimum inhibitory concentration of E. coli,E. coli [6],about 60 time greater
same,gentamicin concentration at the wound margins (tissue),"[7]; Time 1, punch biopsies of subcutaneous fat",0.97 ± 0.33 mg/kg
same,gentamicin concentration at the wound margins (tissue),"[7]; Time 2, punch biopsies of subcutaneous fat",0.60 ± 0.37 mg/kg
